{"source": "patent US20240325394A1", "about": "“SALT AND CRYSTAL FORM OF NITROGEN-CONTAINING HETEROCYCLIC DERIVATIVE, PREPARATION METHOD THEREFOR AND APPLICATION THEREOF” (SHANGHAI HANSOH BIOMEDICAL CO., LTD., priority 2020, published 2024)", "key": {"[1]": {"target": "T1, hERG potassium channel (Homo sapiens, UniProt Q12809)", "T1 construct": "expressed in transfected cells; host or cells: CHO-hERG cells", "T1 sequence (Q12809 whole entry)": "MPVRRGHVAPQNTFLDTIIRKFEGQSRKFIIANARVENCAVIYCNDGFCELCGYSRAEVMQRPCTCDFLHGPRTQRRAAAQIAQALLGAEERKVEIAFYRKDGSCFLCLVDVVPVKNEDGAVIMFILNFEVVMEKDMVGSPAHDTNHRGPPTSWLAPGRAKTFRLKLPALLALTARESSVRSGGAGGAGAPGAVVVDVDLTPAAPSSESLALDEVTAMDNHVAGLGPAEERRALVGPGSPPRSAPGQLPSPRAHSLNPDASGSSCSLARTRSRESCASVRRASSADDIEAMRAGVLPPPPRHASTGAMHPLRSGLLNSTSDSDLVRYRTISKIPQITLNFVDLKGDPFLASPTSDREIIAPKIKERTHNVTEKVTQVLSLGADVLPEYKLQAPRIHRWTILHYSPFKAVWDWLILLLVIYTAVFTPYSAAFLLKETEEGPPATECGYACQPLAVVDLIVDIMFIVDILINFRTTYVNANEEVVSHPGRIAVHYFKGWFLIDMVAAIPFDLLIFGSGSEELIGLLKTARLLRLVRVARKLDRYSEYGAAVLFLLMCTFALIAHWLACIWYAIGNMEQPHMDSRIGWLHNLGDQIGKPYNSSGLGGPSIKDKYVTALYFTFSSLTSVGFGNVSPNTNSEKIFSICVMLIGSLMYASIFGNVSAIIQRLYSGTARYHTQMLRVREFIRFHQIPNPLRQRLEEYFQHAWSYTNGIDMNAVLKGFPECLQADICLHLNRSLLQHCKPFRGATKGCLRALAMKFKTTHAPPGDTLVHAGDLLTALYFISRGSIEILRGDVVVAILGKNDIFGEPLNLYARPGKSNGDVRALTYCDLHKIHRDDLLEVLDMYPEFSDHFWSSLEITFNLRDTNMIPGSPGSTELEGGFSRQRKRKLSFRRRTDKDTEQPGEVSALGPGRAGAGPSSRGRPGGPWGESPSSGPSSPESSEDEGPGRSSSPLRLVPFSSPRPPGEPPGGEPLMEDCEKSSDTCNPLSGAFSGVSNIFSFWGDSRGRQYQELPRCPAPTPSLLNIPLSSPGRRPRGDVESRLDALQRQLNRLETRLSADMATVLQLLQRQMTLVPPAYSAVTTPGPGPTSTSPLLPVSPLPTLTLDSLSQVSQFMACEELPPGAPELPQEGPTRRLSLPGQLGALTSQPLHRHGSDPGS", "assay": "hERG potassium channel inhibitory activity test (Qpatch, CHO-hERG cells)", "type": "cell-based", "settings": "highest test concentration 40 μM, read-out: hERG (μM), inhibition at multiple concentrations on hERG current", "protocol": "7.1.1 CHO-hERG cells were cultured in a 175 cm^2 flask, when the cell density reached 60-80%, the culture medium was removed, the cells were washed with 7 mL PBS, and then digested with 3 mL Detachin. 7.1.2 After complete digestion, 7 mL culture medium was added to neutralize, then the mixture was centrifuged, the supernatant was aspirated, and then 5 mL culture medium was added to re-suspend, ensuring 2-5×10^6/mL of cell density.\nThe process of single cell high impedance sealing and whole cell mode formation were all automatically completed by Qpatch instrument, after obtaining the whole cell recording mode, the cells were clamped at −80 mV, before giving a 5-second +40 mV depolarization stimulus, a 50 millisecond −50 mV prevoltage was given first, and then repolarized to −50 mV for 5 seconds, then returned to −80 mV. This voltage stimulation was applied every 15 seconds and recorded for 2 minutes before giving extracellular fluid recordings for 5 minutes, and then the administration process was started, the compound concentration was given from the lowest test concentration, each test concentration was given for 2.5 minutes, and the positive control compound 3 μM of Cisapride was given after all concentrations were continuously given. At least 3 cells (n≥3) were tested at each concentration.\n7.4.1 20 mM of compound mother liquor was diluted with extracellular fluid, 5 μL of 20 mM compound mother liquor was added into 2495 μL of extracellular fluid and diluted 500-fold to 40 μM, and then the final concentration to be tested was obtained by sequential 3-fold serial dilutions in extracellular solution containing 0.2% DMSO. 7.4.2 The highest test concentration was 40 μM, in a total of 6 concentrations of 40, 13.33, 4.44, 1.48, 0.49 and 0.16 μM respectively. 7.4.3 The content of DMSO in the final test concentration was not more than 0.2%, and this concentration of DMSO had no effect on hERG potassium channel.\nThe experimental data were analyzed by XLFit software. […]"}, "[2]": {"assay": "Plasma stability, human plasma", "type": "in vitro ADME", "settings": "human, 0.5 μM", "protocol": "(§1) Animal or human whole blood was collected, then the blood was put into a test tube containing anticoagulant, centrifuged at 3500 rpm for 10 min, and the upper layer of pale yellow plasma was collected. • 2) 10 μM of tested compound (m/M/V=C)\n(§2) The compound was weighed, the stock solution was prepared with DMSO and the working solution was prepared with 100 mM phosphate buffer. • 3) 10 μM of positive control • (1) Propantheline (Propantheline Mr=449.4 Da)\n(§3) • 1) 285 μL of plasma and 15 μL of 10 μM compound (tested compound) were added in turn in a 96-well plate, and incubated at 37° C. • 2) 40 μL was taken out at 0, 15, 30, 60, 90, 120 min, respectively, and 160 μL of acetonitrile termination solution containing internal standard was added. • 3) After centrifugation (3500 rpm, 10 min), 50 μL of supernatant was taken out, and then diluted with 50 μL DDH2O and injected to LC-MS/MS.\n(§4) • instrument: Shimadzu LC-20 AD • chromatographic column: phenomenex Gemiu® C18 (50*4.6 mm, 5 μM particle size); • mobile phase: A: acetonitrile, B: 0.1% formic acid solution 0-8 min: 5% A→95% A, 2.0-2.1 min: 90% A→5% A; flow rate: 0.8 mL/min; running time: 5.0 min; injection volume: 5 μL.\n(§5) • instrument: API4000 Liquid Chromatography-Mass Spectrometry, AB, USA; • the ion source was electrospray ionization source (ESI); • the temperature of dry gas (N2) was 500° C.; • electrospray voltage was 5500V; • the detection method was positive ion detection; • the scanning mode was selective response monitoring (MRM); • the scanning time was 0.1 s."}, "[3]": {"assay": "Plasma stability, rat plasma", "type": "in vitro ADME", "settings": "rat plasma, 37° C.", "protocol": "as §1, §2, §3, §4, §5"}, "[4]": {"assay": "Plasma stability, mouse plasma", "type": "in vitro ADME", "settings": "mouse plasma, 37° C.", "protocol": "as §1, §2, §3, §4, §5"}, "[5]": {"assay": "Plasma stability, dog plasma", "type": "in vitro ADME", "settings": "dog plasma, 37° C.", "protocol": "as §1, §2, §3, §4, §5"}}, "data": [{"smiles": "C=CC(=O)N1C[C@H](C)N(c2nc(=O)n(-c3c(SC)ccnc3C(C)C)c3nc(-c4c(O)cccc4F)c(Cl)cc23)C[C@H]1C", "note": "(atropisomer, axis not shown) [Embodiment 14-1, P-4-((2S,5R)-4-Acryloyl-2,5-dimethylpiperazin-1-yl)-6-chloro-7-(2-fluoro-6-hydroxyphenyl)-1-(2-isopropyl-4-(methylthio)pyridin-3-yl)pyrido[2,3-d]pyrimidin-2(1H)-one]", "values": [{"measurement": "IC50", "setting": "[1]", "result": "> 30", "unit": "µM"}, {"measurement": "Residual rate (%) 0 min", "setting": "[2]; 0 min", "result": 100.00, "unit": "%"}, {"measurement": "Residual rate (%) 15 min", "setting": "[2]; 15 min", "result": 99.15, "unit": "%"}, {"measurement": "Residual rate (%) 30 min", "setting": "[2]; 30 min", "result": 94.74, "unit": "%"}, {"measurement": "Residual rate (%) 60 min", "setting": "[2]; 60 min", "result": 89.14, "unit": "%"}, {"measurement": "Residual rate (%) 120 min", "setting": "[2]; 120 min", "result": 78.85, "unit": "%"}, {"measurement": "Residual rate (%) 0 min", "setting": "[3]; 0 min", "result": 100.00, "unit": "%"}, {"measurement": "Residual rate (%) 15 min", "setting": "[3]; 15 min", "result": 93.20, "unit": "%"}, {"measurement": "Residual rate (%) 30 min", "setting": "[3]; 30 min", "result": 98.32, "unit": "%"}, {"measurement": "Residual rate (%) 60 min", "setting": "[3]; 60 min", "result": 99.08, "unit": "%"}, {"measurement": "Residual rate (%) 120 min", "setting": "[3]; 120 min", "result": 96.46, "unit": "%"}, {"measurement": "Residual rate (%) 0 min", "setting": "[4]; 0 min", "result": 100.00, "unit": "%"}, {"measurement": "Residual rate (%) 15 min", "setting": "[4]; 15 min", "result": 105.42, "unit": "%"}, {"measurement": "Residual rate (%) 30 min", "setting": "[4]; 30 min", "result": 100.02, "unit": "%"}, {"measurement": "Residual rate (%) 60 min", "setting": "[4]; 60 min", "result": 99.12, "unit": "%"}, {"measurement": "Residual rate (%) 120 min", "setting": "[4]; 120 min", "result": 85.55, "unit": "%"}, {"measurement": "Residual rate (%) 0 min", "setting": "[5]; 0 min", "result": 100.00, "unit": "%"}, {"measurement": "Residual rate (%) 15 min", "setting": "[5]; 15 min", "result": 99.98, "unit": "%"}, {"measurement": "Residual rate (%) 30 min", "setting": "[5]; 30 min", "result": 98.79, "unit": "%"}, {"measurement": "Residual rate (%) 60 min", "setting": "[5]; 60 min", "result": 93.69, "unit": "%"}, {"measurement": "Residual rate (%) 120 min", "setting": "[5]; 120 min", "result": 86.16, "unit": "%"}]}]}
